Reference: patent publication US9493448B2, “Cycloalkane derivatives” (Daiichi Sankyo Company, Limited, priority 2012, dated 2016)
pIC50: −log10 of the molar value.

Legend:
[1] = system: mice and rats affected by thermal hyperalgesia; test: Thermal hyperalgesia assay; format: in vivo; settings: oral administration, constant dose, against the vehicle treatment group; latency to escape behaviors after thermal stimulation of hind paw;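 note: measurement times set by the study director and not disclosed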
hNav 1.7 = hNav 1.7 (Homo sapiens (Human), UniProt Q15858); test: Electrophysiological evaluation, automated patch clamp IonWorks Quattro (Population Patch Clamp mode); format: cell-based; settings: HEK293A cells stably expressing hNav 1.7/β1/β2; response to second depolarization pulse, pre-pulse potential set to V1/2; read-out: hNav1.7 IC50
Sequence of hNav 1.7 (Q15858 whole entry): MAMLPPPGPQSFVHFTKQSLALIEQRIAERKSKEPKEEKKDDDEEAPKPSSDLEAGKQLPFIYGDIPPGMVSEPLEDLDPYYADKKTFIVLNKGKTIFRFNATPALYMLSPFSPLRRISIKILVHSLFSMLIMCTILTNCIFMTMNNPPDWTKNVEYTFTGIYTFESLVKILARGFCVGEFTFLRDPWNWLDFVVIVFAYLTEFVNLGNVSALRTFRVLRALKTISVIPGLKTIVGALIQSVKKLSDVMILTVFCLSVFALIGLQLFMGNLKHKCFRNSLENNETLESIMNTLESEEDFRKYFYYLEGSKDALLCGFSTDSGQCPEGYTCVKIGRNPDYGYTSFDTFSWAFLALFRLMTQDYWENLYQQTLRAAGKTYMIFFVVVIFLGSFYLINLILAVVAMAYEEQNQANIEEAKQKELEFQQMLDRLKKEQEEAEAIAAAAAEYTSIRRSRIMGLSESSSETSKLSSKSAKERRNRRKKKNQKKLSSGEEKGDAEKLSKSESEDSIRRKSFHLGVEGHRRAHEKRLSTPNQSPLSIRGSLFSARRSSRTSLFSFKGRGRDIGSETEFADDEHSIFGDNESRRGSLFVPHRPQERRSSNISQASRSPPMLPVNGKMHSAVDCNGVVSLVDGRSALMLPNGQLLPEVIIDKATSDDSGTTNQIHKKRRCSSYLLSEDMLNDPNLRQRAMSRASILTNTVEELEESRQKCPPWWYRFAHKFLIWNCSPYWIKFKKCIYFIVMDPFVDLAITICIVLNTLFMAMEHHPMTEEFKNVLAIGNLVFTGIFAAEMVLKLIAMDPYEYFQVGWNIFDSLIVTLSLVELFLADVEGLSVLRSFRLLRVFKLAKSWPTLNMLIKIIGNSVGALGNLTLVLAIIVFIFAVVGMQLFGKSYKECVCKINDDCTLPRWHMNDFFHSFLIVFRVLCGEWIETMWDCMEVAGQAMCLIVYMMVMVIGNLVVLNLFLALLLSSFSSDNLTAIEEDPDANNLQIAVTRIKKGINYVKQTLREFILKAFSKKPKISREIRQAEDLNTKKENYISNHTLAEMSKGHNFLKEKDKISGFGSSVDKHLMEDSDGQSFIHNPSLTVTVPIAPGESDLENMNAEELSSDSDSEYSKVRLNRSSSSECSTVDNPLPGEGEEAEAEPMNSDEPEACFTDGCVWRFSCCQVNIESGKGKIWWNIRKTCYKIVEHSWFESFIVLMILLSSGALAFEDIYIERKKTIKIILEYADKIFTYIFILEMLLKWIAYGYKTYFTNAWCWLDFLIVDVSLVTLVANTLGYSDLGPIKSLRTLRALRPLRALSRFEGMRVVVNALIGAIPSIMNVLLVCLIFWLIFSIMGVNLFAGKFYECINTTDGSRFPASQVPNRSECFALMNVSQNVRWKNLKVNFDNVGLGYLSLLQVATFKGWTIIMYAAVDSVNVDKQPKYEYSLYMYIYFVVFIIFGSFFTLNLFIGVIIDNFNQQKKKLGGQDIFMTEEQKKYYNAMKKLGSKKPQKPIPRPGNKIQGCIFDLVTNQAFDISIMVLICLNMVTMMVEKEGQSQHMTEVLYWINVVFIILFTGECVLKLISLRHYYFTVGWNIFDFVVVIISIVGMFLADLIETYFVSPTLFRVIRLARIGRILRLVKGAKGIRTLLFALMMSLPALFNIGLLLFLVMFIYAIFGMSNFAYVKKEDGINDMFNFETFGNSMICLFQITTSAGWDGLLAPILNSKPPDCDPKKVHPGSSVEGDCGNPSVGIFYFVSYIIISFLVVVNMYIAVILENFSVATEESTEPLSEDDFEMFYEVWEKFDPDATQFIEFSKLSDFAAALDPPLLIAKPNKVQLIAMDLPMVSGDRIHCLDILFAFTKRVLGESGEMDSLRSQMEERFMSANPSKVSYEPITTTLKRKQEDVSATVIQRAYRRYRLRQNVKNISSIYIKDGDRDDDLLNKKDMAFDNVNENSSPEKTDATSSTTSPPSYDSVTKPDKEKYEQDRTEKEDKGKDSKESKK
Sequence of hNav 1.7 (Q07699 19-218 partner): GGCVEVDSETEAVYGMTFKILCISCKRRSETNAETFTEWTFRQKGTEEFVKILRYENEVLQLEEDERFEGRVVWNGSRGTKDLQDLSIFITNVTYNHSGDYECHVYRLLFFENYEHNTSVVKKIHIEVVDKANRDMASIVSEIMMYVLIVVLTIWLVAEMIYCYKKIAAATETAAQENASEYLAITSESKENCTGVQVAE
Sequence of hNav 1.7 (O60939 30-215 partner): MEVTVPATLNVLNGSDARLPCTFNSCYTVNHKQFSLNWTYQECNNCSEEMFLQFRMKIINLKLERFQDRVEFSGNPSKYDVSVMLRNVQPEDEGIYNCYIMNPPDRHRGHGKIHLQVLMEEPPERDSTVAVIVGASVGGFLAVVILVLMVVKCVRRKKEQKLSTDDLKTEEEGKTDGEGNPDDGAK

Structure (SMILES): CCn1nccc1[C@H]1CCC[C@@H]1Oc1ccc(S(=O)(=O)Nc2ccncn2)c(F)c1F (relative stereo) [Example 38, 4-{[(1S*,2R*)-2-(1-Ethyl-1H-pyrazol-5-yl)cyclopentyl]oxy}-2,3-difluoro-N-(pyrimidin-4-yl)benzenesulfonamide]
- Ratio of improving pain score (%) [1]: A (“A” when the rate was 61 to 100%)
- pIC50 (hNav 1.7): 6.62

Structure (SMILES): Cn1nccc1[C@H]1CCCC[C@@H]1Oc1ccc(S(=O)(=O)Nc2ccncn2)c(F)c1F (relative stereo) [Example 40, 2,3-Difluoro-4-{[(1S*,2R*)-2-(1-methyl-1H-pyrazol-5-yl)cyclohexyl]oxy}-N-(pyrimidin-4-yl)benzenesulfonamide]
- Ratio of improving pain score (%) [1]: A (“A” when the rate was 61 to 100%)
- pIC50 (hNav 1.7): 6.48

Structure (SMILES): CCn1nccc1[C@H]1CCCC[C@@H]1Oc1ccc(S(=O)(=O)Nc2ccncn2)c(F)c1F (relative stereo) [Example 41, 4-{[(1S*,2R*)-2-(1-Ethyl-1H-pyrazol-5-yl)cyclohexyl]oxy}-2,3-difluoro-N-(pyrimidin-4-yl)benzenesulfonamide]
- Ratio of improving pain score (%) [1]: B (“B” when the rate was 31 to 60%)
- pIC50 (hNav 1.7): 6.80

Structure (SMILES): Cn1nccc1[C@H]1CCCCC[C@@H]1Oc1cc(F)c(S(=O)(=O)Nc2ccncn2)cc1F (relative stereo) [Example 42, 2,5-Difluoro-4-{[(1S*,2R*)-2-(1-methyl-1H-pyrazol-5-yl)cycloheptyl]oxy}-N-(pyrimidin-4-yl)benzenesulfonamide]
- Ratio of improving pain score (%) [1]: C (“C” when the rate was 0 to 30%)
- pIC50 (hNav 1.7): 7.04

Structure (SMILES): Cn1nccc1[C@H]1CCCC[C@@H]1Oc1ccc(S(=O)(=O)Nc2ccncn2)c(F)c1 (relative stereo) [Example 44, 2-Fluoro-4-{[(1S*,2R*)-2-(1-methyl-1H-pyrazol-5-yl)cyclohexyl]oxy}-N-(pyrimidin-4-yl)benzenesulfonamide]
- Ratio of improving pain score (%) [1]: C (“C” when the rate was 0 to 30%)
- pIC50 (hNav 1.7): 6.48

Structure (SMILES): CCn1nccc1[C@H]1CCCC[C@@H]1Oc1ccc(S(=O)(=O)Nc2ccncn2)c(F)c1 (relative stereo) [Example 45, 4-{[(1S*,2R*)-2-(1-Ethyl-1H-pyrazol-5-yl)cyclohexyl]oxy}-2-fluoro-N-(pyrimidin-4-yl)benzenesulfonamide]
- Ratio of improving pain score (%) [1]: C (“C” when the rate was 0 to 30%)
- pIC50 (hNav 1.7): 6.72

Structure (SMILES): Cn1nccc1[C@H]1CCC(F)(F)C[C@@H]1Oc1cc(F)c(S(=O)(=O)Nc2ccncn2)cc1F (relative stereo) [Example 47, 4-{[(1S*,2R*)-5,5-Difluoro-2-(1-methyl-1H-pyrazol-5-yl)cyclohexyl]oxy}-2,5-difluoro-N-(pyrimidin-4-yl)benzenesulfonamide]
- Ratio of improving pain score (%) [1]: A (“A” when the rate was 61 to 100%)
- pIC50 (hNav 1.7): 6.92

Structure (SMILES): CCn1nccc1[C@H]1CCC[C@@H]1Oc1cc(F)c(S(=O)(=O)Nc2ccncn2)c(F)c1 (relative stereo) [Example 50, 4-{[(1S*,2R*)-2-(1-Ethyl-1H-pyrazol-5-yl)cyclopentyl]oxy}-2,6-difluoro-N-(pyrimidin-4-yl)benzenesulfonamide]
- Ratio of improving pain score (%) [1]: B (“B” when the rate was 31 to 60%)
- pIC50 (hNav 1.7): 7.33

Structure (SMILES): Cn1nccc1[C@H]1CCCCC[C@@H]1Oc1ccc(S(=O)(=O)Nc2ccncn2)c(F)c1F (relative stereo) [Example 51, 2,3-Difluoro-4-{[(1S*,2R*)-2-(1-methyl-1H-pyrazol-5-yl)cycloheptyl]oxy}-N-(pyrimidin-4-yl)benzenesulfonamide]
- Ratio of improving pain score (%) [1]: B (“B” when the rate was 31 to 60%)
- pIC50 (hNav 1.7): 6.12

Structure (SMILES): Cc1cc(S(=O)(=O)Nc2ccncn2)ccc1O[C@H]1CCC[C@@H]1c1ccnn1C (relative stereo) [Example 52, 3-Methyl-4-{[(1S*,2R*)-2-(1-methyl-1H-pyrazol-5-yl)cyclopentyl]oxy}-N-(pyrimidin-4-yl)benzenesulfonamide]
- Ratio of improving pain score (%) [1]: B (“B” when the rate was 31 to 60%)
- pIC50 (hNav 1.7): 7.08

Structure (SMILES): Cc1cc(S(=O)(=O)Nc2ccncn2)ccc1O[C@H]1CCCC[C@@H]1c1ccnn1C (relative stereo) [Example 54, 3-Methyl-4-{[(1S*,2R*)-2-(1-methyl-1H-pyrazol-5-yl)cyclohexyl]oxy}-N-(pyrimidin-4-yl)benzenesulfonamide]
- Ratio of improving pain score (%) [1]: C (“C” when the rate was 0 to 30%)
- pIC50 (hNav 1.7): 7.41

Structure (SMILES): Cn1nccc1[C@H]1CCCCC[C@@H]1Oc1ccc(S(=O)(=O)Nc2ccncn2)cc1C#N (relative stereo) [Example 55, 3-Cyano-4-{[(1S*,2R*)-2-(1-methyl-1H-pyrazol-5-yl)cycloheptyl]oxy}-N-(pyrimidin-4-yl)benzenesulfonamide]
- Ratio of improving pain score (%) [1]: C (“C” when the rate was 0 to 30%)
- pIC50 (hNav 1.7): 7.41

Structure (SMILES): Cn1nccc1[C@H]1CCCC[C@@H]1Oc1ccc(S(=O)(=O)Nc2ccncn2)cc1C#N (relative stereo) [Example 56, 3-Cyano-4-{[(1S*,2R*)-2-(1-methyl-1H-pyrazol-5-yl)cyclohexyl]oxy}-N-(pyrimidin-4-yl)benzenesulfonamide]
- Ratio of improving pain score (%) [1]: B (“B” when the rate was 31 to 60%)
- pIC50 (hNav 1.7): 6.60

Structure (SMILES): Cc1cc(S(=O)(=O)Nc2ccncn2)ccc1O[C@H]1CCCCC[C@@H]1c1ccnn1C (relative stereo) [Example 57, 3-Methyl-4-{[(1S*,2R*)-2-(1-methyl-1H-pyrazol-5-yl)cycloheptyl]oxy}-N-(pyrimidin-4-yl)benzenesulfonamide]
- Ratio of improving pain score (%) [1]: B (“B” when the rate was 31 to 60%)
- pIC50 (hNav 1.7): 7.12

Structure (SMILES): Cn1nccc1[C@H]1CCCCC[C@@H]1Oc1ccc(S(=O)(=O)Nc2ccncn2)c(F)c1 (relative stereo) [Example 58, 2-Fluoro-4-{[(1S*,2R*)-2-(1-methyl-1H-pyrazol-5-yl)cycloheptyl]oxy}-N-(pyrimidin-4-yl)benzenesulfonamide]
- Ratio of improving pain score (%) [1]: B (“B” when the rate was 31 to 60%)
- pIC50 (hNav 1.7): 6.18

Structure (SMILES): CCn1nccc1[C@H]1CCCC[C@@H]1Oc1cc(F)c(S(=O)(=O)Nc2ccncn2)c(F)c1 (relative stereo) [Example 59, 4-{[(1S*,2R*)-2-(1-Ethyl-1H-pyrazol-5-yl)cyclohexyl]oxy}-2,6-difluoro-N-(pyrimidin-4-yl)benzenesulfonamide]
- Ratio of improving pain score (%) [1]: C (“C” when the rate was 0 to 30%)
- pIC50 (hNav 1.7): 7.51

Structure (SMILES): Cn1nccc1[C@H]1CCCCC[C@@H]1Oc1cc(F)c(S(=O)(=O)Nc2ccncn2)cc1Cl (relative stereo) [Example 60, 5-Chloro-2-fluoro-4-{[(1S*,2R*)-2-(1-methyl-1H-pyrazol-5-yl)cycloheptyl]oxy}-N-(pyrimidin-4-yl)benzenesulfonamide]
- Ratio of improving pain score (%) [1]: C (“C” when the rate was 0 to 30%)
- pIC50 (hNav 1.7): 7.43

Structure (SMILES): Cn1nccc1[C@H]1CCC[C@@H]1Oc1cc(F)c(S(=O)(=O)Nc2ccncn2)cc1C#N (relative stereo) [Example 62, 5-Cyano-2-fluoro-4-{[(1S*,2R*)-2-(1-methyl-1H-pyrazol-5-yl)cyclopentyl]oxy}-N-(pyrimidin-4-yl)benzenesulfonamide]
- Ratio of improving pain score (%) [1]: B (“B” when the rate was 31 to 60%)
- pIC50 (hNav 1.7): 6.92

Structure (SMILES): Cc1c(O[C@H]2CCC[C@@H]2c2ccnn2C)ccc(S(=O)(=O)Nc2ccncn2)c1F (relative stereo) [Example 65, 2-Fluoro-3-methyl-4-{[(1S*,2R*)-2-(1-methyl-1H-pyrazol-5-yl)cyclopentyl]oxy}-N-(pyrimidin-4-yl)benzenesulfonamide]
- Ratio of improving pain score (%) [1]: B (“B” when the rate was 31 to 60%)
- pIC50 (hNav 1.7): 6.89

Structure (SMILES): Cc1c(O[C@H]2CCCC[C@@H]2c2ccnn2C)ccc(S(=O)(=O)Nc2ccncn2)c1F (relative stereo) [Example 66, 2-Fluoro-3-methyl-4-{[(1S*,2R*)-2-(1-methyl-1H-pyrazol-5-yl)cyclohexyl]oxy}-N-(pyrimidin-4-yl)benzenesulfonamide]
- Ratio of improving pain score (%) [1]: A (“A” when the rate was 61 to 100%)
- pIC50 (hNav 1.7): 7.77

Structure (SMILES): Cn1nccc1[C@H]1CC(C)(C)CC[C@@H]1Oc1cc(F)c(S(=O)(=O)Nc2ccncn2)cc1F (relative stereo) [Example 67, 4-{[(1S*,2R*)-4,4-Dimethyl-2-(1-methyl-1H-pyrazol-5-yl)cyclohexyl]oxy}-2,5-difluoro-N-(pyrimidin-4-yl)benzenesulfonamide]
- Ratio of improving pain score (%) [1]: C (“C” when the rate was 0 to 30%)
- pIC50 (hNav 1.7): 7.37

Structure (SMILES): Cc1cc(S(=O)(=O)Nc2ccncn2)c(F)cc1O[C@H]1CCCC[C@@H]1c1c[nH]nc1N (relative stereo) [Example 68, 4-{[(1S*,2R*)-2-(3-Amino-1H-pyrazol-4-yl)cyclohexyl]oxy}-2-fluoro-5-methyl-N-(pyrimidin-4-yl)benzenesulfonamide]
- Ratio of improving pain score (%) [1]: B (“B” when the rate was 31 to 60%)
- pIC50 (hNav 1.7): 7.07

Structure (SMILES): Nc1ncccc1[C@H]1CCCC[C@@H]1Oc1cc(F)c(S(=O)(=O)Nc2ccncn2)cc1F (relative stereo) [Example 69, 4-{[(1S*,2R*)-2-(2-Aminopyridin-3-yl)cyclohexyl]oxy}-2,5-difluoro-N-(pyrimidin-4-yl)benzenesulfonamide]
- Ratio of improving pain score (%) [1]: B (“B” when the rate was 31 to 60%)
- pIC50 (hNav 1.7): 7.06

Structure (SMILES): Nc1n[nH]cc1[C@H]1CCCC[C@@H]1Oc1cc(F)c(S(=O)(=O)Nc2ccncn2)cc1Cl (relative stereo) [Example 71, 4-{[(1S*,2R*)-2-(3-Amino-1H-pyrazol-4-yl)cyclohexyl]oxy}-5-chloro-2-fluoro-N-(pyrimidin-4-yl)benzenesulfonamide]
- Ratio of improving pain score (%) [1]: A (“A” when the rate was 61 to 100%)
- pIC50 (hNav 1.7): 6.82

Structure (SMILES): Cn1nccc1[C@H]1CCC(C)(C)C[C@@H]1Oc1cc(F)c(S(=O)(=O)Nc2ccncn2)cc1F (relative stereo) [Example 72, 4-{[(1S*,2R*)-5,5-Dimethyl-2-(1-methyl-1H-pyrazol-5-yl)cyclohexyl]oxy}-2,5-difluoro-N-(pyrimidin-4-yl)benzenesulfonamide]
- Ratio of improving pain score (%) [1]: C (“C” when the rate was 0 to 30%)
- pIC50 (hNav 1.7): 7.44
